Measured values from publication PMC3598492, “Cannabinoid receptor type 2 (CB2)-selective N-aryl-oxadiazolyl-propionamides: synthesis, radiolabelling, molecular modelling and biological evaluation” (Organic and Medicinal Chemistry Letters, 2012).
Read-outs that look alike come from different tables or passages of the source.

Columns and labels:
hCB2 = molecular target: T1, hCB2 (Homo sapiens, UniProt P34972); assay: Competitive [3H]CP55,940 binding on membrane homogenates of hCB2-CHO cells; conditions: for Binding to hCB2 in words: hCB2-CHO; for Selectivity, pKi (CB2) – pKi (CB1): pKi = -log (Ki)
T1 construct: host or cells: CHO (hCB2-CHO), crude membrane homogenates
Method: (§1) CHO cell lines stably transfected with human CB1 (hCB1-CHO; obtained from Euroscreen, Gosselies, Belgium) or human CB2 (hCB2-CHO; obtained from Paul L. Prather, Department of Pharmacology and Toxicology, College of Medicine, University of Arkansas for Medical Sciences, USA) were cultured in Ham's F12 medium or Dulbecco's modified Eagle's medium (DMEM) with 10% fetal calf serum, 100 IU/mL penicillin, 100 μg/mL streptomycin and 250 or 400 μg/mL of the selection antibiotic Geneticin (G418), respectively. The cells were cultured in a humidified atmosphere with 5% CO2 at 37°C. Confluent cell layers of 175-cm^2 flasks were scraped; cells were harvested by centrifugation (800 rpm, 3 min), counted by trypan blue staining, suspended in 200 μL of 50 mM tris(hydroxymethyl)aminomethane (TRIS; pH 7.4) at 4°C and stored at −32°C until the binding experiment.
(§2) Competitive binding experiments were performed with crude membrane homogenates obtained from hCB1-CHO or hCB2-CHO cells as described above. […] Incubations were terminated by rapid filtration through a GF-B glass fibre filter pre-incubated for 90 min at room temperature in freshly prepared 0.5% polyvinylpyrrolidone + 0.1% Tween 20 solution using a 48-well cell harvester (Brandel, Gaithersburg, MD, USA).
The corresponding inhibition constants (Ki) of test compounds were derived from the IC50 values using the Cheng-Prusoff equation [49]. All binding experiments were performed in triplicates, and data are given as mean values from independent experiments.

hCB1 = molecular target: T2, hCB1 (Homo sapiens, UniProt P21554); assay: Competitive [3H]CP55,940 binding on membrane homogenates of hCB1-CHO cells
T2 construct: host or cells: CHO (hCB1-CHO), crude membrane homogenates
Method: as §1, §2
Binding data were analysed using GraphPad Prism version 2.01 (GraphPad Software, Inc., San Diego, CA, USA) by non-linear regression to provide estimates of the half maximal inhibitory concentration (IC50) values and the […]. […] The corresponding inhibition constants (Ki) of test compounds were derived from the IC50 values using the Cheng-Prusoff equation [49]. All binding experiments were performed in triplicates, and data are given as mean values from independent experiments.

[1] = molecular target: T3, CB2 receptors in mouse spleen tissue (Mus musculus, UniProt P47936); assay: Autoradiographic displacement of [3H]CP55,940 on coronal mouse spleen sections; type: binding; conditions: for Displacement of the specific binding of 6 nM [3H]CP55,940: mouse spleen sections, HD regions
T3 construct: 12-μm-thick coronal sections obtained from the spleens of three animals; from tissue; host or cells: spleen sections of female CD-1 mice
Method: Animal experiments were performed under procedures approved by the State of Saxony Animal Care and Use Committee and conducted in accordance with the German Law for the Protection of Animals. Female CD-1 mice (10 to 12 weeks old, 20 to 25 g), obtained from the Medizinisch-Experimentelles Zentrum der Universität Leipzig (Leipzig, Germany), were used for the experiments.
The animals were anesthetized and sacrificed, and their spleens were rapidly removed and frozen in isopentane at −35°C. The spleens were brought to −15°C in a cryostat (Microm International GmbH, Walldorf, Germany), and a series of 12-μm-thick coronal sections obtained from the spleens of three animals were collected in parallel on microscopic glass slides. The sections were dried at room temperature and stored at −35°C until they were processed for receptor binding autoradiography.
For autoradiographic experiments, the slides were brought to room temperature, dried in a stream of cold air, pre-incubated in a binding buffer (50 mM TRIS (pH 7.4) at 21°C, 5% BSA) for 15 min at room temperature and dried again in a stream of cold air. […] Samples were washed twice for 30 min at 4°C in 50 mM TRIS (pH 7.4) at 4°C, containing 1% BSA, dipped briefly in ice-cold deionized water (5 s), dried in a stream of cold air and exposed along with [^3H] standards (Amersham/GE Healthcare, Piscataway, NJ, USA) for 14 days to [^3H]-sensitive screen plates (Fuji Photo Film, Co. Ltd., Tokyo, Japan).
The image plates were analysed using a BAS-1800II system bioimaging analyser (Fuji Photo Film, Co. Ltd., Tokyo, Japan). Scan data were visualized and processed by computer-assisted microdensitometry (Aida version 2.31, Raytest Isotopenmessgeräte GmbH, Straubenhardt, Germany). Irregular regions of interest (ROIs) were drawn on selected areas of the spleen labelled as red pulp (low-density binding) and white pulp (high-density binding) according to Lynn and Herkenham and Massi et al..

[2] = read-out: Affinity (Ki) towards hCB1
[3] = read-out: Affinity (Ki) towards hCB2

T1 sequence (P34972 whole entry): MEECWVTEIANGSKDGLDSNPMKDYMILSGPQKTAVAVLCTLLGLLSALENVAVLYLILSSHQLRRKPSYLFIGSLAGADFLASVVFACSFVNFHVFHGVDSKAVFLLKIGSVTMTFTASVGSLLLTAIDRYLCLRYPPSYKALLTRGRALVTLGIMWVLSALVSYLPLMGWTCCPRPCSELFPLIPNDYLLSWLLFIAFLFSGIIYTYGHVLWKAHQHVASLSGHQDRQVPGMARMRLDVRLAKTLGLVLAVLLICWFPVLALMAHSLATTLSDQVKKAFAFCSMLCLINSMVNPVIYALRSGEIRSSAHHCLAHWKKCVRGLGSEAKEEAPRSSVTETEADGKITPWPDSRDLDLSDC
T3 sequence (P47936 whole entry): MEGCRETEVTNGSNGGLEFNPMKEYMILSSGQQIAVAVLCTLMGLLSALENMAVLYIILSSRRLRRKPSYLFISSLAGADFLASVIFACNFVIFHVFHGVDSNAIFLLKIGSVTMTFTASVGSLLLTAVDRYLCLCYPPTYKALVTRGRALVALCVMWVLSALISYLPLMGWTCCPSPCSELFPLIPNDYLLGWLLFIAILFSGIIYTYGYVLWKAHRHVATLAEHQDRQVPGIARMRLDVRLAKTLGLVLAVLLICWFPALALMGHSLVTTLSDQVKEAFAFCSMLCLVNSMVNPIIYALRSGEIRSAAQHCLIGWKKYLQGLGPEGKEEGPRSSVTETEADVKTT
T2 sequence (P21554 whole entry): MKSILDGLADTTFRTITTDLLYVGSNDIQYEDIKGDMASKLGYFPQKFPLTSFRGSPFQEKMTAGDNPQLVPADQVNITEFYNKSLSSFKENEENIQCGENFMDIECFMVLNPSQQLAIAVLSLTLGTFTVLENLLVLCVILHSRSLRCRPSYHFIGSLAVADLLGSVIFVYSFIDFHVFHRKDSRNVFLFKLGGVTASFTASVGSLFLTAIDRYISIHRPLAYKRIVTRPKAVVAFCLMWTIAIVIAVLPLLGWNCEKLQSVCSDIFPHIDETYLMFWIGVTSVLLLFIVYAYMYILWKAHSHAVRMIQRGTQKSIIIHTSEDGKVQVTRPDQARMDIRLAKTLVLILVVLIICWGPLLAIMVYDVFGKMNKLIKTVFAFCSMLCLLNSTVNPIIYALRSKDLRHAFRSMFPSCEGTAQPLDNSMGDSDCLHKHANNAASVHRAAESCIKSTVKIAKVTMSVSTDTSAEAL

`CC(C)(C)c1cc(NC(=O)CCc2nc(-c3ccc(F)nc3)no2)no1` [Compound 1b, 3-(3-(6-Fluoropyridin-3-yl)-1,2,4-oxadiazol-5-yl)-N-(5-tert-butylisoxazol-3-yl)propanamide] was tested, and the “Binding to hCB2 in words” value (hCB2) was “low affinity” and the Ki (hCB2; hCB2 expressed in CHO cells, 0.5 nM [3H]CP55,940, Cheng-Prusoff, read-out: Affinity (Ki) towards hCB2) was greater than 100000 nM.
Work on `CCn1c2ccccc2c2cc(NC(=O)CCc3nc(-c4ccc([N+](=O)[O-])cc4C#N)no3)ccc21` [Compound 6f, 3-(3-(2-Cyano-4-nitrophenyl)-1,2,4-oxadiazol-5-yl)-N-(9-ethyl-9H-carbazol-3-yl)propanamide] yielded a Ki (hCB2) of 5.89 nM.
For `O=C(CCc1nc(-c2ccc(F)cc2F)no1)Nc1cn(Cc2ccccc2)c2ccccc12` [Compound 7h, 3-(3-(2,4-Difluorophenyl)-1,2,4-oxadiazol-5-yl)-N-(1-benzyl-1H-indol-3-yl)-propanamide], the “Binding to hCB1 in words” value (hCB1; hCB1-CHO) was “Weak affinity”, the Ki (hCB1; [2]) was 6010 nM and the “Binding to hCB2 in words” value (hCB2) was “lost”. It also gave a Ki (hCB2; [3]) greater than 100000 nM.
`CCCCCCC(C)(C)c1ccc([C@@H]2C[C@H](O)CC[C@H]2CCCO)c(O)c1` [^3H]CP55,940] was tested, and the “Density of specific binding sites” value ([1]; 6 nM [3H]CP55,940, mouse spleen) was 150 ± 25 fmol/mg wet weight and the “Specific binding as share of total binding” value ([1]; mouse spleen autoradiography) was “approximately 90%”.
In the case of `CCn1c2ccccc2c2cc(NC(=O)CCc3nc(-c4ccc([N+](=O)[O-])cc4F)no3)ccc21` [Compound 6d, 3-(3-(2-Fluoro-4-nitrophenyl)-1,2,4-oxadiazol-5-yl)-N-(9-ethyl-9H-carbazol-3-yl)propanamide], the Ki (hCB1; [2]) is reported as 7470 nM, the Ki (hCB2) is reported as 12.5 nM and the “Selectivity, pKi (CB2) – pKi (CB1)” value (hCB2; hCB2 versus hCB1) is reported as 2.78.
For `O=C(CCc1nc(-c2ccc(F)cc2Br)no1)Nc1ccc2[nH]c3ccccc3c2c1` [Compound 4e, 3-(3-(2-Bromo-4-fluorophenyl)-1,2,4-oxadiazol-5-yl)-N-(9H-carbazol-3-yl)propanamide], the “Binding to hCB2 in words” value (hCB2) was “no binding” and the Ki (hCB2; [3]) was greater than 100000 nM.
In the case of `CCn1c2ccccc2c2cc(NC(=O)CCc3nc(-c4ccc(F)cc4F)no3)ccc21` [Compound 6h, 3-(3-(2,4-Difluorophenyl)-1,2,4-oxadiazol-5-yl)-N-(9-ethyl-9H-carbazol-3-yl)propanamide], the receptor occupancy at 1 µM ([1]; read-out: Fractional occupancy of [3H]CP55,940 binding sites calculated by Gaddum equation) is reported as 83%, the Ki (hCB1; hCB1-CHO, read-out: Ki hCB1) is reported as greater than 1000 nM and the Ki (hCB2) is reported as 39.4 nM. The “Selectivity over hCB1” value (hCB2; hCB2 versus hCB1) was “more than 1,000 fold”.
Molecule `Cn1c2ccccc2c2cc(NC(=O)CCc3nc(-c4ccc(F)cc4Br)no3)ccc21` [Compound 5e, 3-(3-(2-Bromo-4-fluorophenyl)-1,2,4-oxadiazol-5-yl)-N-(9-methyl-9H-carbazol-3-yl)propanamide] has a Ki (hCB2; [3]) of 250 nM.
In the case of `CC(C)(C)c1cc(NC(=O)CCc2nc(-c3ccc(Br)nc3)no2)no1` [Compound 1a, 3-(3-(6-Bromopyridin-3-yl)-1,2,4-oxadiazol-5-yl)-N-(5-tert-butylisoxazol-3-yl)propanamide], the “Binding to hCB2 in words” value (hCB2) is reported as “high affinity” and the Ki (hCB2; [3]) is reported as 14.4 nM.
With `N#Cc1cc(F)ccc1-c1noc(CCC(=O)Nc2cnc3ccccc3c2)n1` [Compound 2a, 3-(3-(2-Cyano-4-fluorophenyl)-1,2,4-oxadiazol-5-yl)-N-(quinolin-3-yl)propanamide] the “Binding to hCB1 in words” value (hCB1; hCB1-CHO) was “could not be observed”, the “Fold lower hCB2 affinity” value (hCB2; in comparison to 6a) was “approximately 100 fold” and the Ki (hCB2; [3]) was 722 nM.
`Cc1c(C(=O)NN2CCCCC2)nn(-c2ccc(Cl)cc2Cl)c1-c1ccc(Cl)cc1` [SR141716A] was tested, and the “Specific CP55,940 binding remaining” value ([1]; 1 μM compound, 6 nM [3H]CP55,940, mouse spleen) was 94% and the “Displacement of the specific binding of 6 nM [3H]CP55,940” value ([1]; 1 μM compound) was “nearly no displacement”.
With SR144528 the “Displacement of the specific binding of 6 nM [3H]CP55,940” value ([1]; 1 μM compound) was 78%.
Work on `CCn1c2ccccc2c2cc(NC(=O)CCc3nc(-c4ccc(F)cc4O)no3)ccc21` [Compound 6j, 3-(3-(4-Fluoro-2-hydroxyphenyl)-1,2,4-oxadiazol-5-yl)-N-(9-ethyl-9H-carbazol-3-yl)propanamide] yielded a Ki (hCB2; [3]) of 5710 nM.
`CCn1c2ccccc2c2cc(NC(=O)CCc3nc(-c4ccc(Br)nc4)no3)ccc21` [Compound 6c, 3-(3-(6-Bromopyridin-3-yl)-1,2,4-oxadiazol-5-yl)-N-(9-ethyl-9H-carbazol-3-yl)propanamide] was tested, and the “Binding to hCB2 in words” value (hCB2) was “low affinity” and the Ki (hCB2; [3]) was 1920 nM.
In the case of `O=C(CCc1nc(-c2ccc(Br)nc2)no1)Nc1cnc2ccccc2c1` [Compound 2c, 3-(3-(6-Bromopyridin-3-yl)-1,2,4-oxadiazol-5-yl)-N-(quinolin-3-yl)propanamide], the “Binding to hCB1 in words” value (hCB1; hCB1-CHO) is reported as “could not be observed”, the “Binding to hCB2 in words” value (hCB2) is reported as “low affinity” and the Ki (hCB2; [3]) is reported as greater than 100000 nM.
`CCn1c2ccccc2c2cc(NC(=O)CCc3nc(-c4ccc(N)cc4F)no3)ccc21` [Compound 6i, 3-(3-(4-Amino-2-fluorophenyl)-1,2,4-oxadiazol-5-yl)-N-(9-ethyl-9H-carbazol-3-yl)propanamide] was tested, and the Ki (hCB2; [3]) was greater than 100000 nM.
For `CCn1c2ccccc2c2cc(NC(=O)CCc3nc(-c4ccc(F)cc4OC)no3)ccc21` [Compound 6l, 3-(3-(4-Fluoro-2-methoxyphenyl)-1,2,4-oxadiazol-5-yl)-N-(9-ethyl-9H-carbazol-3-yl)-propanamide], the Ki (hCB2; [3]) was 223 nM.
For `O=C(CCc1nc(-c2ccc(F)nc2)no1)Nc1cnc2ccccc2c1` [Compound 2b, 3-(3-(6-Fluoropyridin-3-yl)-1,2,4-oxadiazol-5-yl)-N-(quinolin-3-yl)propanamide], the “Binding to hCB1 in words” value (hCB1; hCB1-CHO) was “could not be observed”, the “Binding to hCB2 in words” value (hCB2) was “low affinity” and the Ki (hCB2; [3]) was 2290 nM.
Work on `CCn1c2ccccc2c2cc(NC(=O)CCc3nc(-c4ccc(OC)cc4Br)no3)ccc21` [Compound 6m, 3-(3-(2-Bromo-4-methoxyphenyl)-1,2,4-oxadiazol-5-yl)-N-(9-ethyl-9H-carbazol-3-yl)propanamide] yielded a Ki (hCB2; [3]) greater than 100000 nM.
`CCn1c2ccccc2c2cc(NC(=O)CCc3nc(-c4ccc([N+](=O)[O-])cc4Br)no3)ccc21` [Compound 6g, 3-(3-(2-Bromo-4-nitrophenyl)-1,2,4-oxadiazol-5-yl)-N-(9-ethyl-9H-carbazol-3-yl)propanamide] was tested, and the Ki (hCB1; [2]) was 397 nM, the Ki (hCB2) was 2.38 nM and the “Selectivity, pKi (CB2) – pKi (CB1)” value (hCB2; hCB2 versus hCB1) was 2.22.
`CCn1c2ccccc2c2cc(NC(=O)CCc3nc(-c4ccc(F)cc4OCCF)no3)ccc21` [Compound 6k, 3-(3-(4-Fluoro-2-(2-fluoroethoxy)phenyl)-1,2,4-oxadiazol-5-yl)-N-(9-ethyl-9H-carbazol-3-yl)-propanamide] was tested, and the Ki (hCB2; [3]) was 3190 nM.
`CCn1c2ccccc2c2cc(NC(=O)CCc3nc(-c4ccc(F)nc4)no3)ccc21` [Compound 6b, 3-(3-(6-Fluoropyridin-3-yl)-1,2,4-oxadiazol-5-yl)-N-(9-ethyl-9H-carbazol-3-yl)propanamide] was tested, and the Ki (hCB1; [2]) was 1560 nM, the “Binding to hCB2 in words” value (hCB2) was “low affinity” and the “Selectivity, pKi (CB2) – pKi (CB1)” value (hCB2; hCB2 versus hCB1) was 1.06. The Ki (hCB2; [3]) was 135 nM.
For `CCn1ccc2cc(NC(=O)CCc3nc(-c4ccc(F)nc4)no3)ccc21` [Compound 3b, 3-(3-(6-Fluoropyridin-3-yl)-1,2,4-oxadiazol-5-yl)-N-(1-ethyl-1H-indol-5-yl)-propanamide], the “Binding to hCB2 in words” value (hCB2) was “low affinity” and the Ki (hCB2; [3]) was greater than 100000 nM.
